Experimental data as given in US8883963B2 (Cadila Healthcare Limited, priority 2007, dated 2014).

How the values were obtained:
Human GLP-1 receptor = target: T1, Human GLP-1 receptor (Homo sapiens, UniProt P43220); test: In vitro Human GLP-1 R agonist activity (cyclic AMP determination) in CHO/human GLP1R cells; type: cell-based
T1 construct: The full-length cDNA was cloned in pcDNA3.1(+); expressed in transfected cells
Description: The novel peptidomimetics were screened for Human GLP-1 receptor (HGLP-1 R) agonist activity (in vitro), using the cAMP cell-based assay, in stably transfected CHO/human GLP1R cells. […] CHO cells were grown in Ham's F12 medium containing L-Glutamine (2 mM), HEPES (25 mM), NaHCO3 (1.1 g/L) and supplemented with NewBorn Calf Serum (NBCS; 10%), Penicillin (50 U/ml (v/v)) and Streptomycin (50 ug/ml (v/v)). Cells were split every 3 days 1:8.
The cDNA encoding the human GLP-1 receptor was isolated by RT-PCR according to standard protocol. The full-length cDNA was cloned in pcDNA3.1(+). […] Clones expressing the receptor were generated by G418 (800 μg/ml active, Sigma) selection. The stable clones were thereafter maintained at 500 ug/ml (G418). The selected clone was used between passages 9-25 for cAMP assays.
The trypsin was inactivated using Ham's F12 medium containing 10% NBCS and the cells were suspended in 2 ml of complete medium. […] The medium was aspirated off from the 12 well plate and the cells were washed once using Ham's F12 (plain). […] The cells were incubated with the test compounds for 30 min in humidified atmosphere and 37° C. After the incubation, the medium was removed and cells were washed once with plain Ham's F12. Subsequently, the cells were lysed by adding 500 ul of ice cold 0.1 N HCl to each well and shaking for 30 minutes at 200 rpm. The cells were then scrapped, the lysate was collected in micro centrifuge tubes and centrifuged at 12000 rpm for 10 min to remove the debris. 300 ul of supernatant from each micro-centrifuge tube was then removed into a glass tube and dried under N2 for 30 min, for cAMP estimation. The total cAMP was estimated from the sample according to the manufacturer's protocol using Cyclic AMP immunoassay kit (R&D systems, Minneapolis. MN). The remaining supernatant is used to determine the protein concentration using micro BCA (Sigma). Data is calculated as percent of control (Vehicle: water) and expressed as Mean±SD.

human glucagon receptor = target: T2, human glucagon receptor (Homo sapiens, UniProt P47871); test: In vitro human glucagon antagonist activity (inhibition of cAMP production) in CHO/human glucagon R cells; type: cell-based; conditions: with saturated concentration of glucagon peptide
T2 construct: The full-length cDNA was cloned in pcDNA3.1 (Invitrogen); expressed in transfected cells
T2 sequence (P47871 26-477): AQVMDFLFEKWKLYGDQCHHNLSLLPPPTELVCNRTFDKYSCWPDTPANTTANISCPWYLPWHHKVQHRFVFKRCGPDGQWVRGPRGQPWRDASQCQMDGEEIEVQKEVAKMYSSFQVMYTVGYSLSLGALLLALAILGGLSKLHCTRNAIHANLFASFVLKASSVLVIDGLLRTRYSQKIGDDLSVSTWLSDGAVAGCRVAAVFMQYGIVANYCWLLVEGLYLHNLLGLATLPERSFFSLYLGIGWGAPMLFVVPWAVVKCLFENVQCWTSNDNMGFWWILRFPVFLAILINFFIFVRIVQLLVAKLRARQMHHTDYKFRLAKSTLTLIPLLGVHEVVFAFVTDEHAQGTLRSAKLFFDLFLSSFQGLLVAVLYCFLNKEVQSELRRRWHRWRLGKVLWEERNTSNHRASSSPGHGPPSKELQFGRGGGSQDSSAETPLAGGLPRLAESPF

DPP IV = DPP IV (Homo sapiens, UniProt P27487); test: Stability against DPP IV enzyme; type: in vitro ADME; conditions: 37° C.; for % degradation of peptidomimetics in 24 h when incubated with DPP-IV enzyme: 2 μM peptidomimetic; for half-life at 2 μM: DPP IV enzyme, pH 7.8, 2 μM peptidomimetic, read-out: half-life (t1/2) when incubated with DPP-IV enzyme
Sequence of DPP IV (P27487 whole entry, species assumed): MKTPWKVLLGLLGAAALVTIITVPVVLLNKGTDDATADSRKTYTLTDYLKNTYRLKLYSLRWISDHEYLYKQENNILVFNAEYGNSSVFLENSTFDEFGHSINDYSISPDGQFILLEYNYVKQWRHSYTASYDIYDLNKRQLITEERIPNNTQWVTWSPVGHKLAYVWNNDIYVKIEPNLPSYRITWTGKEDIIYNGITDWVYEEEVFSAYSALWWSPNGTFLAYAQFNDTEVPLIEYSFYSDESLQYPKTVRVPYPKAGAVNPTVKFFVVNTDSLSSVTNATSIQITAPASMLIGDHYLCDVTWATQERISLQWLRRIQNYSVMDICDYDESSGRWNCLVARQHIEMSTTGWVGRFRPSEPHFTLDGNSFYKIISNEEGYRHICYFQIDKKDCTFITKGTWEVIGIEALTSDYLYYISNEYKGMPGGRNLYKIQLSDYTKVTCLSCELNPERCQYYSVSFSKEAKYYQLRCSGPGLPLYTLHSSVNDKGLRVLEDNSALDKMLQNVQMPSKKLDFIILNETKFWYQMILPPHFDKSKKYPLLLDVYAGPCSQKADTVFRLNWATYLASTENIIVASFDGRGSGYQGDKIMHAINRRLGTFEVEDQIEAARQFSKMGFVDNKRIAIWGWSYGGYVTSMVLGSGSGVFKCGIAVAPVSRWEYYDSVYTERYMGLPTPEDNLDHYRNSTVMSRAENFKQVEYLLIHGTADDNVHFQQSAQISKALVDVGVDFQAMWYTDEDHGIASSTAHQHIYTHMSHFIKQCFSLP
Description: (§1) Reactions were terminated by the addition of TFA/H2O (15 mL, 10% (v/v)). […] The column was equilibrated with TFA/H20, at a flow rate of 1 mL/min.

[1] = Stability in human plasma; type: in vitro ADME; conditions: 2 μM peptidomimetic, pooled human plasma, 37° C.; for half-life at 2 μM: pH 7.8, read-out: half-life (t1/2) when incubated with human plasma
Description: as §1

[2] = Stability in simulated gastric fluid; type: in vitro ADME; conditions: 2 μM peptidomimetic, simulated gastric fluid pH 1.5, 37° C.; for half-life at 2 μM: read-out: half-life (t1/2) when incubated with simulated gastric fluid
Description: as §1

[3] = Stability in simulated intestinal fluid; type: in vitro ADME; conditions: 2 μM peptidomimetic, simulated intestinal fluid pH 7.5, 37° C.; for half-life at 2 μM: read-out: half-life (t1/2) when incubated with simulated intestinal fluid
Description: as §1

[4] = Stability in liver microsomes; type: in vitro ADME; conditions: 2 μM peptidomimetic, human liver microsomes, 37° C.; for half-life at 2 μM: pH 7.8, read-out: half-life (t1/2) when incubated with liver microsomes
Description: as §1

T1 sequence (P43220 24-463): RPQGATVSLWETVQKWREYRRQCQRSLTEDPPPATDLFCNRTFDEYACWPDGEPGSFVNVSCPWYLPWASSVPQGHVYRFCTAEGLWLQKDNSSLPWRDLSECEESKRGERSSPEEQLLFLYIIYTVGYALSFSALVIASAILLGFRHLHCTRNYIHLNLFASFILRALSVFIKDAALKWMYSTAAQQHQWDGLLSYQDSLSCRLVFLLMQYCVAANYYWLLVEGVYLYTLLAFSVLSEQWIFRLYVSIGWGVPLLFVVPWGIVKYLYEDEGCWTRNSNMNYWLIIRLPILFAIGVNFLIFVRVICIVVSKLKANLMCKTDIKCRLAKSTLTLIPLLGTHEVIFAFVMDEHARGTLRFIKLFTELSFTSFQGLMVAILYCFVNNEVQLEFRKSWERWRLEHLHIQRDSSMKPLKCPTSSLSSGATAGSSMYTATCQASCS

For `CCc1cc(OC)ccc1-c1ccc(CC(NC(=O)[C@H](CC(=O)O)NC(=O)[C@H](CO)NC(=O)[C@@H](NC(=O)C(C)(Cc2ccccc2F)NC(=O)[C@@H](NC(=O)CNC(=O)C(CCC#N)NC(=O)C(C)(C)NC(=O)[C@@H](N)Cc2c[nH]cn2)[C@H](C)O)[C@H](C)O)C(=S)NC(CCCc2ccccc2F)C(N)=O)cc1` (single isomer, unassigned) [compound 168], the “Human GLP-1 R activity (cAMP release), % activity with respect to control” value (Human GLP-1 receptor; 1 nM test compound) was 96 ± 0.09%, the “Human GLP-1 R activity (cAMP release), % activity with respect to control” value (Human GLP-1 receptor; 10 nM test compound) was 99 ± 0.07% and the “Human GLP-1 R activity (cAMP release), % activity with respect to control” value (Human GLP-1 receptor; 100 nM test compound) was 99 ± 0.04%. The “Human GLP-1 R activity (cAMP release), % activity with respect to control” value (Human GLP-1 receptor; 1 μM test compound) was 99 ± 0.01%, the “Human GLP-1 R activity (cAMP release), % activity with respect to control” value (Human GLP-1 receptor; 10 μM test compound) was 99 ± 0.08% and the “Human Glucagon receptor antagonistic activity shown as inhibition of cAMP production of Glucagon peptide” value (human glucagon receptor; 1 nM test compound) was 21 ± 0.11 pmol/ml/μg prt. The “Human Glucagon receptor antagonistic activity shown as inhibition of cAMP production of Glucagon peptide” value (human glucagon receptor; 10 nM test compound) was 19 ± 0.02 pmol/ml/μg prt, the “Human Glucagon receptor antagonistic activity shown as inhibition of cAMP production of Glucagon peptide” value (human glucagon receptor; 100 nM test compound) was 18 ± 0.07 pmol/ml/μg prt and the “Human Glucagon receptor antagonistic activity shown as inhibition of cAMP production of Glucagon peptide” value (human glucagon receptor; 1 μM test compound) was 18 ± 0.03 pmol/ml/μg prt. The “Human Glucagon receptor antagonistic activity shown as inhibition of cAMP production of Glucagon peptide” value (human glucagon receptor; 10 μM test compound) was 16 ± 0.02 pmol/ml/μg prt, the “% degradation of peptidomimetics in 24 h when incubated with DPP-IV enzyme” value (from here on “% degradation … with DPP-IV enzyme”) (DPP IV) was 72% and the half-life at 2 μM (DPP IV) was 540 min. For the same molecule, the “% degradation of peptidomimetics in 24 h when incubated with human plasma” value (“% degradation … with human plasma” for short) [1] was 70%, the half-life at 2 μM [1] was 480 min and the “half-life (t1/2) when incubated with simulated gastric fluid” value [2] was “(8) h”. The “% degradation of peptidomimetics in 24 h when incubated with simulated gastric fluid” value (“% degradation … with simulated gastric fluid” below) [2] was 12%, the “half-life (t1/2) when incubated with simulated intestinal fluid” value [3] was “(6) h” and the “% degradation of peptidomimetics in 24 h when incubated with simulated intestinal fluid” value (from here on “% degradation … with simulated intestinal fluid”) [3] was 42%. The “% degradation of peptidomimetics in 24 h when incubated with liver microsomes” value (from here on “% degradation … with liver microsomes”) [4] was 78% and the half-life at 2 μM [4] was 60 min.
For `CCc1cc(OC)ccc1-c1ccc(CC(NC(=O)[C@H](CC(=O)O)NC(=O)[C@H](CO)NC(=O)[C@@H](NC(=O)C(C)(Cc2ccccc2F)NC(=O)[C@@H](NC(=O)CNC(=O)[C@H](CC(C(F)(F)F)C(F)(F)F)NC(=O)C(C)(C)NC(=O)[C@@H](N)Cc2c[nH]cn2)[C@@H](C)O)[C@H](C)O)C(=O)NC(CCCc2ccccc2F)C(N)=O)cc1` (single isomer, unassigned) [compound 224], the “Human GLP-1 R activity (cAMP release), % activity with respect to control” value (Human GLP-1 receptor; 1 nM test compound) was 99 ± 0.06%, the “Human GLP-1 R activity (cAMP release), % activity with respect to control” value (Human GLP-1 receptor; 10 nM test compound) was 99 ± 0.06% and the “Human GLP-1 R activity (cAMP release), % activity with respect to control” value (Human GLP-1 receptor; 100 nM test compound) was 99 ± 0.08%. The “Human GLP-1 R activity (cAMP release), % activity with respect to control” value (Human GLP-1 receptor; 1 μM test compound) was 99 ± 0.10%, the “Human GLP-1 R activity (cAMP release), % activity with respect to control” value (Human GLP-1 receptor; 10 μM test compound) was 99 ± 0.12% and the “% degradation … with DPP-IV enzyme” value (DPP IV) was 00%. For the same molecule, the half-life at 2 μM (DPP IV) was greater than 1440 min, the “% degradation … with human plasma” value [1] was 00% and the half-life at 2 μM [1] was greater than 1440 min. For the same molecule, the “% degradation … with simulated gastric fluid” value [2] was 00%, the half-life at 2 μM [2] was greater than 1440 min and the “% degradation … with simulated intestinal fluid” value [3] was 00%. The half-life at 2 μM [3] was greater than 1440 min, the “half-life (t1/2) when incubated with liver microsomes” value [4] was “(5) h” and the “% degradation … with liver microsomes” value [4] was 26%.
In the case of `CCc1cc(OC)ccc1-c1ccc(CC(CNC(CCCc2ccccc2)C(N)=O)NC(=O)[C@H](CC(=O)O)NC(=O)[C@H](CO)NC(=O)[C@@H](NC(=O)C(C)(Cc2ccccc2F)NC(=O)[C@@H](NC(=O)CNC(=O)C(CCC#N)NC(=O)C(C)(C)NC(=O)[C@@H](N)Cc2c[nH]cn2)[C@H](C)O)[C@H](C)O)cc1` (single isomer, unassigned) [compound 190], the “Human GLP-1 R activity (cAMP release), % activity with respect to control” value (Human GLP-1 receptor; 1 nM test compound) is reported as 41 ± 0.09%, the “Human GLP-1 R activity (cAMP release), % activity with respect to control” value (Human GLP-1 receptor; 10 nM test compound) is reported as 82 ± 0.07% and the “Human GLP-1 R activity (cAMP release), % activity with respect to control” value (Human GLP-1 receptor; 100 nM test compound) is reported as 87 ± 0.04%. For the same molecule, the “Human GLP-1 R activity (cAMP release), % activity with respect to control” value (Human GLP-1 receptor; 1 μM test compound) was 95 ± 0.01%, the “Human GLP-1 R activity (cAMP release), % activity with respect to control” value (Human GLP-1 receptor; 10 μM test compound) was 98 ± 0.08% and the “% degradation … with DPP-IV enzyme” value (DPP IV) was 00%. The half-life at 2 μM (DPP IV) was greater than 1440 min, the “% degradation … with human plasma” value [1] was 00% and the half-life at 2 μM [1] was greater than 1440 min. For the same molecule, the “% degradation … with simulated gastric fluid” value [2] was 45%, the half-life at 2 μM [2] was 240 min and the “% degradation … with simulated intestinal fluid” value [3] was 00%. The half-life at 2 μM [3] was greater than 1440 min, the “% degradation … with liver microsomes” value [4] was 85% and the half-life at 2 μM [4] was 120 min.
For `CCc1cc(OC)ccc1-c1ccc(CC(NC(=S)[C@H](CC(=O)O)NC(=O)[C@H](CO)NC(=O)[C@@H](NC(=O)C(C)(Cc2ccccc2F)NC(=O)[C@@H](NC(=O)CNC(=O)C(CCC#N)NC(=O)C(C)(C)NC(=O)[C@@H](N)Cc2c[nH]cn2)[C@H](C)O)[C@H](C)O)C(=S)NC(CCCc2ccccc2F)C(N)=O)cc1` (single isomer, unassigned) [compound 180], the “Human GLP-1 R activity (cAMP release), % activity with respect to control” value (Human GLP-1 receptor; 1 nM test compound) was 40 ± 0.11%, the “Human GLP-1 R activity (cAMP release), % activity with respect to control” value (Human GLP-1 receptor; 10 nM test compound) was 81 ± 0.09% and the “Human GLP-1 R activity (cAMP release), % activity with respect to control” value (Human GLP-1 receptor; 100 nM test compound) was 89 ± 0.06%. For the same molecule, the “Human GLP-1 R activity (cAMP release), % activity with respect to control” value (Human GLP-1 receptor; 1 μM test compound) was 96 ± 0.14%, the “Human GLP-1 R activity (cAMP release), % activity with respect to control” value (Human GLP-1 receptor; 10 μM test compound) was 99 ± 0.19% and the “% degradation … with DPP-IV enzyme” value (DPP IV) was 00%. For the same molecule, the half-life at 2 μM (DPP IV) was greater than 1440 min, the “% degradation … with human plasma” value [1] was 00% and the half-life at 2 μM [1] was greater than 1440 min. The “% degradation … with simulated gastric fluid” value [2] was 50%, the half-life at 2 μM [2] was 240 min and the “% degradation … with simulated intestinal fluid” value [3] was 00%. The half-life at 2 μM [3] was greater than 1440 min, the “% degradation … with liver microsomes” value [4] was 86% and the half-life at 2 μM [4] was 120 min.
With `CCc1cc(OC)ccc1-c1ccc(CC(CNC(CCCc2ccccc2F)C(N)=O)NC[C@H](CC(=O)O)NC(=O)[C@H](CO)NC(=O)[C@@H](NC(=O)C(C)(Cc2ccccc2F)NC(=O)[C@@H](NC(=O)CNC(=O)[C@H](CCC(N)=O)NC(=O)C(C)(C)NC(=O)[C@@H](N)Cc2c[nH]cn2)[C@H](C)O)[C@H](C)O)cc1` (single isomer, unassigned) [compound 203] the “Human GLP-1 R activity (cAMP release), % activity with respect to control” value (Human GLP-1 receptor; 1 nM test compound) was 86 ± 0.11%, the “Human GLP-1 R activity (cAMP release), % activity with respect to control” value (Human GLP-1 receptor; 10 nM test compound) was 99 ± 0.09% and the “Human GLP-1 R activity (cAMP release), % activity with respect to control” value (Human GLP-1 receptor; 100 nM test compound) was 99 ± 0.06%. For the same molecule, the “Human GLP-1 R activity (cAMP release), % activity with respect to control” value (Human GLP-1 receptor; 1 μM test compound) was 99 ± 0.14%, the “Human GLP-1 R activity (cAMP release), % activity with respect to control” value (Human GLP-1 receptor; 10 μM test compound) was 99 ± 0.19% and the “% degradation … with DPP-IV enzyme” value (DPP IV) was 00%. The half-life at 2 μM (DPP IV) was greater than 1440 min, the “% degradation … with human plasma” value [1] was 00% and the half-life at 2 μM [1] was greater than 1440 min. The “% degradation … with simulated gastric fluid” value [2] was 00%, the half-life at 2 μM [2] was greater than 1440 min and the “% degradation … with simulated intestinal fluid” value [3] was 00%. For the same molecule, the half-life at 2 μM [3] was greater than 1440 min, the “half-life (t1/2) when incubated with liver microsomes” value [4] was “(5) h” and the “% degradation … with liver microsomes” value [4] was 31%.
